The test system of assay [1] is ACh+PNU-responsive mouse DRG neurons (α7 nAChR). Format: cell-based.
The test system of the next assay is α7 nAChR. Particulars: cited from earlier work.
In the next assay the target is mouse α6/α3β4 nAChR (Mus musculus, UniProt Q8R493+Q8R4G9+Q9R0W9). The class given is cell-based.
The subject of another assay is mouse DRG neurons. As to conditions: cited from earlier work.

Where a SMILES comes first, the peptide text is derived from it. Bridges are numbered along the chain shown (N, C = ends). [ ]: non-standard residue; d: D form. pGlu = O=C1CC[C@@H](C(=O)O)N1

Sequence of mouse α6/α3β4 nAChR (Q8R493 whole entry, looked up): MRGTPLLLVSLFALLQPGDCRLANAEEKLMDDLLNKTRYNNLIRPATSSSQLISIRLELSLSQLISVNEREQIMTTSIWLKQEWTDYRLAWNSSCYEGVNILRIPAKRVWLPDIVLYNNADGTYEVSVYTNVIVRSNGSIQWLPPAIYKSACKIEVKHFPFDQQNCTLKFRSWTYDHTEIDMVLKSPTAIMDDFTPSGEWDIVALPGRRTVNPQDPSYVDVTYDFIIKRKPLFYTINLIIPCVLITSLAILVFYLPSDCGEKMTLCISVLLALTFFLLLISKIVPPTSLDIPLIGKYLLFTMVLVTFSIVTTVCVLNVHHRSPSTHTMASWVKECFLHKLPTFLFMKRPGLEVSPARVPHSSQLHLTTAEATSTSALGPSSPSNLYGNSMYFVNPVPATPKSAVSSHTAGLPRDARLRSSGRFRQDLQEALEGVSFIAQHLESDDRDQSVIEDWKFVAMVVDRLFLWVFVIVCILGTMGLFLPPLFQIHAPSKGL
Sequence of mouse α6/α3β4 nAChR (Q8R4G9 whole entry, looked up): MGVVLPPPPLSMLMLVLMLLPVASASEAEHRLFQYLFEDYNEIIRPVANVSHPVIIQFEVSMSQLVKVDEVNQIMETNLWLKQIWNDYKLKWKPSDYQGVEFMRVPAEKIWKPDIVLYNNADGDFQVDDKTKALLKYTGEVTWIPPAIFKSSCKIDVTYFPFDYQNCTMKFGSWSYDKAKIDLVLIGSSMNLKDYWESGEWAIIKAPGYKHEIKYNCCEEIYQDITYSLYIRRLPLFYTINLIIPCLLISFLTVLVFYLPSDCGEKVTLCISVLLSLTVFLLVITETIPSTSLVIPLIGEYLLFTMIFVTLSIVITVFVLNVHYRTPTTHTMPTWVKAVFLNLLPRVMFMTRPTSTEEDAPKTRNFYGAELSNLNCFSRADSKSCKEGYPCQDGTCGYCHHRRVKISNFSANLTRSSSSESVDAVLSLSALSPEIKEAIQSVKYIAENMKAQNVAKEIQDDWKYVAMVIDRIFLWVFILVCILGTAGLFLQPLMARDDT
Sequence of mouse α6/α3β4 nAChR (Q9R0W9 whole entry, looked up): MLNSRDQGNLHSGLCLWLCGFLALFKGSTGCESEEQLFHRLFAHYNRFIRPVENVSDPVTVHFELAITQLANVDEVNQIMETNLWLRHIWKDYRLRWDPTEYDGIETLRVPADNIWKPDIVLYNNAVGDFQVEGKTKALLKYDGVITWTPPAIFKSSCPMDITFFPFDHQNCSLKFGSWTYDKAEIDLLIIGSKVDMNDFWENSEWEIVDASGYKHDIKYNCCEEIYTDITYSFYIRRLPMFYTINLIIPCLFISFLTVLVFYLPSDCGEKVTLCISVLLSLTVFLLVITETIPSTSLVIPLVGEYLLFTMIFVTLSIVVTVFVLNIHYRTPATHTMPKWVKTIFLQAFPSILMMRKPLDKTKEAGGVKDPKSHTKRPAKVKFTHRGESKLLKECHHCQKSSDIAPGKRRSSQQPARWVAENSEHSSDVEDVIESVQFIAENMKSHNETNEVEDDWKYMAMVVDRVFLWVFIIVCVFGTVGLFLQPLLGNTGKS

For the compound PNU-120596, the “calcium response to ACh alone or ACh+PNU in α7-expressing DRG neurons” value in assay [1] is “co-application of ACh and PNU uncovered a calcium response”. In the assay with α7 nAChR, the “α7 modulation” value is reported as “α7 positive allosteric modulator”.
For the compound `CC(C)C[C@@H]1NC(=O)[C@H](CCC(=O)O)NC(=O)[C@@H]2CCCN2C(=O)[C@H](Cc2c[nH]cn2)NC(=O)[C@H](CC(N)=O)NC(=O)[C@H](C(C)C)NC(=O)[C@H](CO)NC(=O)[C@@H]2CSSC[C@H](NC(=O)CNC(=O)[C@@H]3CCC(=O)N3)C(=O)N[C@@H](CSSC[C@@H](C(=O)N[C@@H](Cc3c[nH]c4ccccc34)C(=O)O)NC1=O)C(=O)N[C@@H](CO)C(=O)N[C@@H](Cc1c[nH]cn1)C(=O)N1CCC[C@H]1C(=O)N[C@@H](C)C(=O)N2` [αCtx-AtIA] ([pGlu]GCCSHPACSVNHPELCW-OH; disulfide 3-9, 4-17), the “loss of potency on α6/α3β4 compared to αCtx-PeIA” value at mouse α6/α3β4 nAChR is reported as ~ 5 fold.
For `CC(=O)OCC[N+](C)(C)C` [ACh, acetylcholine], in assay [1], the “calcium response to ACh alone or ACh+PNU in α7-expressing DRG neurons” value is reported as “did not cause calcium influx in these cells”. Besides, the “calcium response of DRG neurons to agonist” value with mouse DRG neurons is “a subset of mouse DRG neurons responds to serial application of 1 mM acetylcholine (ACh) with elevation of intracellular calcium”.
